Laboratory results as given in EP2914280B1, “SOMATOSTATIN-DOPAMINE CHIMERIC ANALOGS” (IPSEN PHARMA S.A.S., priority 2012, dated 2014).
Read-outs that look alike come from different tables or passages of the source. Numbered stars: 1 amine (or outer) side, 2 acyl side, 3 side chain; on linkers, the order of the positions; unused ones are H or OH. Bridge positions count the residues as written; N and C are the ends. Square brackets hold non-standard residues; d marks the D form. Peptide text beside a SMILES is read from it. * marks the point of attachment. X1 = CN1C[C@H](CSCCN(CCSC[C@@H]2C[C@@H]3c4cccc5[nH]cc(c45)C[C@H]3N(C)C2)[C@H](CCCCN[*:2])C(=O)[*:1])C[C@@H]2c3cccc4[nH]cc(c34)C[C@H]21; X2 = CN1C[C@H](CSCC(=O)*)C[C@@H]2c3cccc4[nH]cc(c34)C[C@H]21; 4Pal = N[C@@H](Cc1ccncc1)C(=O)O

How the values were obtained:
hSSTR1 = biological target: T1, hSSTR1 (Homo sapiens, UniProt P30872); test: Somatostatin receptor radioligand binding assay (hSSTR1)
T1 construct: expressed in transfected cells; host or cells: CHO-K1 (ATCC), pcDNA3.1, G418-selected clonal line; membranes

hSSTR2 [1] = biological target: T2, hSSTR2 (Homo sapiens, UniProt P30874); test: Somatostatin receptor radioligand binding assay (hSSTR2);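 note: radioligand displacement on membranes of CHO-K1 cells stably transfected with human SSTR2, specific binding taken as total minus binding left with 1000 nM SRIF-14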
T2 construct: host or cells: 'Cells expressing hSSTR2'

hSSTR5 = biological target: T3, hSSTR5 (Homo sapiens, UniProt P35346); test: Somatostatin receptor radioligand binding assay (hSSTR5); conditions: CHO-K1 cell membranes; 0.05 nM [125I-Tyr]-[DPhe-cyclo(Cys-Tyr-DTrp-Lys-Val-Cys)-Thr-NH2]; 60 minutes at 25°C; read-out: hSSTR5 Ki (nM) ± SEM
T3 construct: expressed in transfected cells; host or cells: CHO-K1 (ATCC), pcDNA3.1, G418-selected clonal line; membranes
Method: The affinities of a test compound for the human somatostatin receptors were determined by radioligand binding assays in CHO-K1 cells stably transfected with each of the human somatostatin receptor subtypes, hSSTR1-5. […] Clonal cell lines stably expressing each of the somatostatin receptors were obtained by transfection into CHO-K1 cells (ATCC) and subsequently selected with culture media containing 0.8 mg/mL of G418 (Life Technologies).
Membranes for in vitro receptor binding assays were obtained by the following procedures. […] The supernatant containing the plasma membranes was centrifuged at 100,000 x g for 30 minutes and the pellet was resuspended in buffer containing 20 mM glycine-glycine, 1 mM MgCl2, 250 mM sucrose, pH 7.2, for storage at -80°C.
For the SSTR1, 2 and 5 assays, membranes and various concentrations of test compounds were incubated in 96-well plates for 60 minutes at 25°C with 0.05 nM [^125I-Tyr^11]-SRIF-14 (for hSSTR1; PerkinElmer Life Science), 0.05 nM [^125I-Tyr]-seglitide (for hSSTR2; PerkinElmer Life Science) or 0.05 nM [^125I-Tyr]-[DPhe-cyclo(Cys-Tyr-DTrp-Lys-Val-Cys)-Thr-NH2] (for hSSTR5; PerkinElmer Life Science) in 50 mM HEPES, 0.2% BSA, 0.1 mM MgCl2, pH 7.5.
The incubations were terminated by rapid filtration through GF/C glass microfiber filter plates (pre-wet with 0.3% polyethyleneimine and 0.1 % BSA) using a 96-well cell harvester (Brandel). Plates were washed six times with 1 mL/well aliquots of ice-cold buffer containing 50 mM Tris buffer, pH 7.7. Specific binding was defined as the total radioligand bound minus the bound in the presence of 1000 nM SRIF-14.

hSSTR2 [2] = biological target: T2, hSSTR2; test: Intracellular calcium mobilization assay (FLIPR Calcium 4), hSSTR2; assay type: cell-based; conditions: for improvement in EC50 over Reference Compound A: p value (Student's t-test, one-tailed) < 0.05;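 for all read-outs here: agonist activity measured in cells expressing hSSTR2, seeded in 384-well plates, loaded with Calcium 4 dye, read-out as rise in intracellular calcium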
hDRD2 [3] = biological target: T4, hDRD2 (Homo sapiens, UniProt P14416); test: cell-based; parameters: host or cells: 'Cells expressing hDRD2'; conditions: for Emax: read-out: hDRD2 %Emax ± SEM
hDRD2 [4] = biological target: T4, hDRD2; test: biochemical; assay type: binding; parameters: expressed in transfected cells; host or cells: CHO-K1, pcDNA3.1/GS, zeocin-selected clonal line; membranes
[5] = CHO-K1 cell membranes, 0.05 nM [125I-Tyr11]-SRIF-14, 60 minutes at 25°C, read-out: hSSTR1 Ki (nM) ± SEM
[6] = CHO-K1 cell membranes, 0.05 nM [125I-Tyr]-seglitide, 60 minutes at 25°C, read-out: hSSTR2 Ki (nM) ± SEM
[7] = CHO-K1 cell membranes, […] [3H]-spiperone, 60 minutes at 25°C, read-out: hDRD2 Ki (nM) ± SEM
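Throughout, for Emax: agonist activity at human DRD2 in DRD2-expressing cells, read as intracellular calcium mobilization with a FLIPR Calcium 4 fluorescent dye.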

T3 sequence (P35346 whole entry): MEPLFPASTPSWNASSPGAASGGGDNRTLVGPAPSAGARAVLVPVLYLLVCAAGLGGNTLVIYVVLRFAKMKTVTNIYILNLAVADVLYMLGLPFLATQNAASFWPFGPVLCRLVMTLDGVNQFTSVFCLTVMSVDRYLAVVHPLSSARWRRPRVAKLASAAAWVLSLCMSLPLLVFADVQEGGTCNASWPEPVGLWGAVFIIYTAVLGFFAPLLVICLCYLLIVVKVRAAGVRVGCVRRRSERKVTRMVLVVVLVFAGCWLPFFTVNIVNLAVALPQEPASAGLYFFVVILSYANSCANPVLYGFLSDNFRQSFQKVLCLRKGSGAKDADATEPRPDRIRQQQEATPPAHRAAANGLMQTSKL
T4 sequence (P14416 whole entry): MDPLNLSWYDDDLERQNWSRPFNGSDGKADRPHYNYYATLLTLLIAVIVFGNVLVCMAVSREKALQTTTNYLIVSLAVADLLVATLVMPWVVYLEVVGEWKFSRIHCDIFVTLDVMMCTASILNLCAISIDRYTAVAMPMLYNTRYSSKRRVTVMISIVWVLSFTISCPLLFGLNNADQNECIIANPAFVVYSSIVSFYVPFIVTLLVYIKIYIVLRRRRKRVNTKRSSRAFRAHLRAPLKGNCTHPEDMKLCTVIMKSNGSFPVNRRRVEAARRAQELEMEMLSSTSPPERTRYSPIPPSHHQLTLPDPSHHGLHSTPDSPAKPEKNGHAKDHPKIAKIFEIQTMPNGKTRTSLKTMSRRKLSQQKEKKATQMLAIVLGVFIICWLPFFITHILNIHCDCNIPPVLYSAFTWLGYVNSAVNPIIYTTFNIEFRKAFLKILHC
T2 sequence (P30874 whole entry): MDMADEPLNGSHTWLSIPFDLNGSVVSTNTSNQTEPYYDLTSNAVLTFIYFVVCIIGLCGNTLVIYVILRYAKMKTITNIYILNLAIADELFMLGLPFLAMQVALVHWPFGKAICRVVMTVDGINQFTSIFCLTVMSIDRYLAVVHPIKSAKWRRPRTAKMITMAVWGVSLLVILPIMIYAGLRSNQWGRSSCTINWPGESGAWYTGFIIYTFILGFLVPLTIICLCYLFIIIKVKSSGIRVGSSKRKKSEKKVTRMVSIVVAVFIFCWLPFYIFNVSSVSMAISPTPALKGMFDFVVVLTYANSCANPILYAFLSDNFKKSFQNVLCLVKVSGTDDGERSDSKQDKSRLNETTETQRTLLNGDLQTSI
T1 sequence (P30872 whole entry): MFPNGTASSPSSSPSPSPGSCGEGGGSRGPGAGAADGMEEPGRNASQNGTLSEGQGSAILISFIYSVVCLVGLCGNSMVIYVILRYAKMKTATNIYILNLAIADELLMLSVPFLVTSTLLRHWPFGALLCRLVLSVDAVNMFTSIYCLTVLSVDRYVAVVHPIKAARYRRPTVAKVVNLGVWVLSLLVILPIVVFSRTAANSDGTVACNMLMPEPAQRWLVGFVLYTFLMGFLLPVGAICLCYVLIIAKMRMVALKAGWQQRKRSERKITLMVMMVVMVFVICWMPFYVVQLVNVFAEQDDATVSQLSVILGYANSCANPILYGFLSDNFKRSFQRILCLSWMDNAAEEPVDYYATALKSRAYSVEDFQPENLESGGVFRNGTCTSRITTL

| SMILES | Ki (hSSTR1) [nM] | Ki (hSSTR2 [1]) [nM] | Ki (hSSTR5) [nM] | EC50 (hSSTR2 [2]) [nM] | EC50 (hDRD2 [3]) [nM] | Emax (hDRD2 [3]) [%] | Ki (hDRD2 [4]) [nM] | Ki (hSSTR1; [5]) [nM] | Ki (hSSTR2 [1]; [6]) [nM] | Ki (hDRD2 [4]; [7]) [nM] | improvement in EC50 over Reference Compound A (hSSTR2 [2]; receptor not named) | EC50 value lower than that for Reference Compound A (hSSTR2 [2]; ratio to Reference Compound A, receptor not named, figures fit hSSTR2) | EC50 (hSSTR2 [2]; Table IV, cells expressing hSSTR2, read-out: hSSTR2 EC50 (nM) ± SEM) [nM] | improvement in %Emax over Reference Compound C (hSSTR2 [2]; receptor not named) |
| --- | --- | --- | --- | --- | --- | --- | --- | --- | --- | --- | --- | --- | --- | --- |
| C[C@@H](O)[C@@H]1NC(=O)[C@H](CCCCN)NC(=O)[C@@H](Cc2c[nH]c3ccccc23)NC(=O)[C@H](Cc2ccccc2)NC(=O)[C@H](Cc2ccccc2)NC(=O)[C@H](CCCNC(=N)N)NC(=O)[C@H](NCCS(=O)(=O)C[C@@H]2C[C@@H]3c4cccc5[nH]cc(c45)C[C@H]3N(C)C2)CCCCNC(=O)[C@H](Cc2ccc(F)cc2)NC1=O [Compound 10, Dop1(SO2)-psi(CH2NH)-cyclo(DLys-Arg-Phe-Phe-DTrp-Lys-Thr-4FPhe)] | 6.6 | 0.17 ± 0.05 | 0.16 ± 0.1 | 19.4 ± 2 | 24 ± 4.5 | 92.8 ± 4 | 56.4 ± 11.2 | – | – | – | – | – | – | – |
| C[C@@H](O)[C@@H]1NC(=O)[C@H](CCCCN)NC(=O)[C@@H](Cc2c[nH]c3ccccc23)NC(=O)[C@H](Cc2ccncc2)NC(=O)[C@H](Cc2ccccc2)NC(=O)[C@H](CCCNC(=N)N)NC(=O)[C@H](NCC[S@+]([O-])C[C@@H]2C[C@@H]3c4cccc5[nH]cc(c45)C[C@H]3N(C)C2)CCCCNC(=O)[C@H](Cc2ccc(O)cc2)NC1=O [Compound 11, Dop1[(R)SO]-psi(CH2NH)-cyclo(DLys-Arg-Phe-4Pa1-DTrp-Lys-Thr-Tyr)] | 160 ± 22.5 | 0.05 | 0.09 | 2.4 ± 0.4 | 6.4 ± 0.9 | 106 ± 3.5 | 79.7 ± 21.4 | – | – | – | – | – | – | – |
| C[C@@H](O)[C@@H]1NC(=O)[C@H](CCCCN)NC(=O)[C@@H](Cc2c[nH]c3ccccc23)NC(=O)[C@H](Cc2ccncc2)NC(=O)[C@H](Cc2ccccc2)NC(=O)[C@H](CCCNC(=N)N)NC(=O)[C@H](NCC[S@@+]([O-])C[C@@H]2C[C@@H]3c4cccc5[nH]cc(c45)C[C@H]3N(C)C2)CCCCNC(=O)[C@H](Cc2ccc(O)cc2)NC1=O [Compound 12, Dop1[(S)SO]-psi(CH2NH)-cyclo(DLys-Arg-Phe-4Pal-DTrp-Lys-Thr-Tyr)] | 98.9 ± 2.3 | 0.06 ± 0.01 | 0.74 ± 0.4 | 4.1 ± 1.4 | 76.3 ± 28.2 | 99.8 ± 6 | 255 ± 224 | – | – | – | – | – | – | – |
| C[C@@H](O)[C@@H]1NC(=O)[C@H](CCCCN)NC(=O)[C@@H](Cc2c[nH]c3ccccc23)NC(=O)[C@H](Cc2ccccc2)NC(=O)[C@H](Cc2ccccc2)NC(=O)[C@H](CCCNC(=N)N)NC(=O)[C@H](NC[C@H](Cc2ccc(O)cc2)NC(=O)C[S+]([O-])C[C@@H]2C[C@@H]3c4cccc5[nH]cc(c45)C[C@H]3N(C)C2)CCCCNC(=O)[C@H](Cc2ccc(F)cc2)NC1=O (stereo partly drawn) [Compound 13, Dop1(SO)-Tyr-psi(CH2NH)-cyclo(DLys-Arg-Phe-Phe-DTrp-Lys-Thr-4FPhe)] | 8.6 | 0.04 ± 0.02 | 0.23 | 1.6 ± 0.1 | 9.2 ± 2.7 | 93.9 ± 4.5 | 32.5 ± 8.9 | – | – | – | – | – | – | – |
| C[C@@H](O)[C@@H]1NC(=O)[C@H](CCCCN)NC(=O)[C@@H](Cc2c[nH]c3ccccc23)NC(=O)[C@H](Cc2ccccc2)NC(=O)[C@H](Cc2ccccc2)NC(=O)[C@H](CCCNC(=N)N)NC(=O)[C@H](NCC[S+]([O-])C[C@@H]2C[C@@H]3c4cccc5[nH]cc(c45)C[C@H]3N(C)C2)CCCCNC(=O)[C@H](Cc2ccc(F)cc2)NC1=O (stereo partly drawn) [Compound 14, Dop1(SO)-psi(CH2NH)-cyclo(DLys-Arg-Phe-Phe-DTrp-Lys-Thr-4FPhe)] | 6 | 0.05 ± 0.01 | 0.36 | 1.3 ± 0.1 | 8.7 ± 1.7 | 103 ± 2.3 | 76.5 ± 13.9 | – | – | – | – | – | – | – |
| C[C@@H](O)[C@@H]1NC(=O)[C@H](CCCCN)NC(=O)[C@@H](Cc2c[nH]c3ccccc23)NC(=O)[C@H](Cc2ccncc2)NC(=O)[C@H](Cc2ccccc2)NC(=O)[C@H](CCCNC(=N)N)NC(=O)[C@H](NC[C@H](Cc2ccc(O)cc2)NC(=O)C[S+]([O-])C[C@@H]2C[C@@H]3c4cccc5[nH]cc(c45)C[C@H]3N(C)C2)CCCCNC(=O)[C@H](Cc2ccccc2)NC1=O (stereo partly drawn) [Compound 15, Dop1(SO)-Tyr-psi(CH2NH)-cyclo(DLys-Arg-Phe-4Pal-DTrp-Lys-Thr-Phe)] | 64.4 | 0.02 ± 0.01 | 0.08 | 1.6 ± 0.3 | 7.4 ± 0.4 | 94.6 ± 0.8 | 149 ± 11.3 | – | – | – | – | – | – | – |
| C[C@@H](O)[C@@H]1NC(=O)[C@H](CCCCN)NC(=O)[C@@H](Cc2c[nH]c3ccccc23)NC(=O)[C@H](Cc2ccncc2)NC(=O)[C@H](Cc2ccccc2)NC(=O)[C@H](CCCNC(=N)N)NC(=O)[C@H](NC[C@H](CCCCNC(=O)C[S+]([O-])C[C@@H]2C[C@@H]3c4cccc5[nH]cc(c45)C[C@H]3N(C)C2)NC(=O)C[S+]([O-])C[C@@H]2C[C@@H]3c4cccc5[nH]cc(c45)C[C@H]3N(C)C2)CCCCNC(=O)[C@H](Cc2ccccc2)NC1=O (stereo partly drawn) [Compound 17, Dop1(SO)-Lys[Dop1(SO)]-psi(CH2NH)-cyclo(DLys-Arg-Phe-4Pal-DTrp-Lys-Thr-Phe)] | 91.4 | 0.08 ± 0.05 | 0.86 | 10.3 ± 2 | 10.2 ± 2.2 | 96.9 ± 1.2 | 67.6 ± 18.4 | – | – | – | – | – | – | – |
| C[C@@H](O)[C@@H]1NC(=O)[C@H](CCCCN)NC(=O)[C@@H](Cc2c[nH]c3ccccc23)NC(=O)[C@H](Cc2ccncc2)NC(=O)[C@H](Cc2ccccc2)NC(=O)[C@H](CCCNC(=N)N)NC(=O)[C@H](NCCS(=O)(=O)C[C@@H]2C[C@@H]3c4cccc5[nH]cc(c45)C[C@H]3N(C)C2)CCCCNC(=O)[C@H](Cc2ccc(O)cc2)NC1=O [Compound 20, Dop1(SO2)-psi(CH2NH)-cyclo(DLys-Arg-Phe-4Pal-DTrp-Lys-Thr-Tyr)] | – | – | 0.33 | – | – | 101.5 ± 0.6 | – | 689 | 0.02 ± 0.01 | 115 ± 41.3 | – | – | – | – |
| C[C@@H](O)[C@@H]1NC(=O)[C@H](CCCCN)NC(=O)[C@@H](Cc2c[nH]c3ccccc23)NC(=O)[C@H](Cc2ccncc2)NC(=O)[C@H](Cc2ccccc2)NC(=O)[C@H](CCCNC(=N)N)NC(=O)[C@H](NC(=O)CSC[C@@H]2C[C@@H]3c4cccc5[nH]cc(c45)C[C@H]3N(C)C2)CCCCNC(=O)[C@H](Cc2ccccc2)NC1=O [Compound 24, Dop1-cyclo(DLys-Arg-Phe-4Pal-DTrp-Lys-Thr-Phe)] (X2-[dK]RF[4Pal][dW]KTF; lactam 1-C) | – | – | 2.39 | – | – | 87.8 ± 4 | – | 47.7 ± 30.7 | 0.08 ± 0.01 | 175 ± 25.6 | statistically significant improvement in EC50 | about 9 fold | – | – |
| C[C@@H](O)[C@@H]1NC(=O)[C@H](CCCCN)NC(=O)[C@@H](Cc2c[nH]c3ccccc23)NC(=O)[C@H](Cc2ccncc2)NC(=O)[C@H](Cc2ccccc2)NC(=O)[C@H](CCCNC(=N)N)NC(=O)[C@H](NC(=O)CSC[C@@H]2C[C@@H]3c4cccc5[nH]cc(c45)C[C@H]3N(C)C2)CCCCNC(=O)[C@H](Cc2ccc(O)cc2)NC1=O [Compound 25, Dop1-cyclo(DLys-Arg-Phe-4Pal-DTrp-Lys-Thr-Tyr)] (X2-[dK]RF[4Pal][dW]KTY; lactam 1-C) | 41.9 ± 17.6 | 0.05 ± 0.01 | 0.95 ± 0.1 | 3.4 ± 1 | 27 ± 3.3 | 82.5 ± 7.6 | 272 ± 119 | – | – | – | statistically significant improvement in EC50 | – | – | – |
| C[C@@H](O)[C@@H]1NC(=O)[C@H](CCCCN)NC(=O)[C@@H](Cc2c[nH]c3ccccc23)NC(=O)[C@H](Cc2ccncc2)NC(=O)[C@H](Cc2ccccc2)NC(=O)[C@H](CCCNC(=N)N)NC(=O)[C@H](N(CCSC[C@@H]2C[C@@H]3c4cccc5[nH]cc(c45)C[C@H]3N(C)C2)CCSC[C@@H]2C[C@@H]3c4cccc5[nH]cc(c45)C[C@H]3N(C)C2)CCCCNC(=O)[C@H](Cc2ccc(O)cc2)NC1=O [Compound 35, bis[Dop1-psi(CH2N)]-cyclo(DLys-Arg-Phe-4Pal-DTrp-Lys-Thr-Tyr)] (RF[4Pal][dW]KTY; linker N-C via X1) | – | – | – | – | 97.4 ± 21.1 | 103 ± 1.4 | 345 ± 40.4 | 99.7 | 0.17 ± 0.06 | – | – | – | 19.4 ± 6.2 | – |
| C[C@@H](O)[C@@H]1NC(=O)[C@H](CCCCN)NC(=O)[C@@H](Cc2c[nH]c3ccccc23)NC(=O)[C@H](Cc2ccccc2)NC(=O)[C@H](Cc2ccccc2)NC(=O)[C@H](CCCNC(=N)N)NC(=O)[C@H](NC[C@H](CCCCNC(=O)CSC[C@@H]2C[C@@H]3c4cccc5[nH]cc(c45)C[C@H]3N(C)C2)NC(=O)CSC[C@@H]2C[C@@H]3c4cccc5[nH]cc(c45)C[C@H]3N(C)C2)CCCCNC(=O)[C@H](Cc2ccc(F)cc2)NC1=O [Compound 47, Dop1-Lys(Dop1)-psi(CH2NH)-cyclo(DLys-Arg-Phe-Phe-DTrp-Lys-Thr-4FPhe)] | – | – | – | – | – | 92.5 ± 0.8 | – | 29 | 0.58 ± 0.27 | 84.2 ± 7.5 | – | – | – | statistically significant improvement in %Emax |
